PMC11073699, “Odorant receptors for floral- and plant-derived volatiles in the yellow fever mosquito, Aedes aegypti (Diptera: Culicidae)” (PLOS ONE, 2024)
“And” between values parts separate entries of the source, which are not always exact repeats. Equal entries are not always repeated.

How the values were obtained:
Type in all cases: cell-based
AaegOR13 = molecular target: T1, AaegOR13 (Aedes aegypti, UniProt Q16Z13); assay: Two-electrode voltage clamp of Xenopus laevis oocytes expressing AaegOR13/Orco (blends, unitary compounds, concentration-response); conditions: for Raw data (Responses in nA), unitary compounds of Indoles 1, Alcohols 1, Alcohols 3: individual oocytes 1-7
T1 sequence (Q16Z13 1-389): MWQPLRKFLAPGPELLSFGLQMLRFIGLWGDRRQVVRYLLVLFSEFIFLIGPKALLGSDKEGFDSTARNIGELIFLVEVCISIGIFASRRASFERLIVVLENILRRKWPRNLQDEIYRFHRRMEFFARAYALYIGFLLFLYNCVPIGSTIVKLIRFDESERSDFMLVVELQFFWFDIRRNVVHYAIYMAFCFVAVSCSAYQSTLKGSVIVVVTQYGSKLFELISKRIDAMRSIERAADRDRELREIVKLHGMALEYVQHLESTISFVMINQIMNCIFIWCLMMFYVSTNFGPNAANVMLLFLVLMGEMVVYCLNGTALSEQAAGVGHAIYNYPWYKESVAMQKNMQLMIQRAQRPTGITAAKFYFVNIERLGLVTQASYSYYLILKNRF
T1 sequence (Q178U6 1-478 partner): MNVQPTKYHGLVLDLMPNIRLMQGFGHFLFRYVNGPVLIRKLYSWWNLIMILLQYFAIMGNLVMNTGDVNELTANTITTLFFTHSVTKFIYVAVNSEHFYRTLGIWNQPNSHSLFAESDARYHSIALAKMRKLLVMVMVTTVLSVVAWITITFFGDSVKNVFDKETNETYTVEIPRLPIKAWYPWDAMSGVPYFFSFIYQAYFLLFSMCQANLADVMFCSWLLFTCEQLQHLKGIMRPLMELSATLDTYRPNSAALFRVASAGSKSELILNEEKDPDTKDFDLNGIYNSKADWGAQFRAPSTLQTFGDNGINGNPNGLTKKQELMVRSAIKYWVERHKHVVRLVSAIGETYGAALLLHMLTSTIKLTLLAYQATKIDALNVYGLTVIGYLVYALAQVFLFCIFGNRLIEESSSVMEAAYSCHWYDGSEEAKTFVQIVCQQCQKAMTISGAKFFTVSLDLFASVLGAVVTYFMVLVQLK
Method in brief: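 Xenopus oocytes injected with cRNA for AaegOR plus Orco, kept 48–72 hrs at 18°C, clamped at -80 mV by TEVC. Odorant blends or single compounds (10% DMSO dilutions) perfused 10–15 s; concentration-response from 10^-3M to 10^-9M, ≥7 responding oocytes, ≥2 biological replicates.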

AaegOR55 = molecular target: T2, AaegOR55 (Aedes aegypti, UniProt Q16T12); assay: Two-electrode voltage clamp of Xenopus laevis oocytes expressing AaegOR55/Orco (blends, unitary compounds, concentration-response); conditions: for Raw Data (Responses in nA), Indoles 1 unitary compounds / Raw Data (Responses in nA), concentration-response: AaegOR55; for Raw Data (Responses in nA), Indoles 1 unitary compounds: compounds of blend Indoles 1, individual oocytes (Oocyte 1-7); for Raw Data (Responses in nA), concentration-response: individual oocytes (Oocyte 1-9)
T2 sequence (Q16T12 10-392): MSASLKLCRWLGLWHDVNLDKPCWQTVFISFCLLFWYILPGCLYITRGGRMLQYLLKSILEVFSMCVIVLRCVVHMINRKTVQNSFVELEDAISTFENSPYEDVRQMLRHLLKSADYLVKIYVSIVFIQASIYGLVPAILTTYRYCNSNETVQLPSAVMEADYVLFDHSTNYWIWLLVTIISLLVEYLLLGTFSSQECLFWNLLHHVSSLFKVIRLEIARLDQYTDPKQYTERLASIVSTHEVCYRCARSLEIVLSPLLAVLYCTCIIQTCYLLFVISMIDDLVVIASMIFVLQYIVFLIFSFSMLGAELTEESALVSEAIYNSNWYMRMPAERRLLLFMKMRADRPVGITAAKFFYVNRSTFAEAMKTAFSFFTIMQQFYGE
T2 sequence (Q178U6 1-478 partner): T1 sequence (Q178U6 1-478 partner)
Source text: (§1) The coding regions of ten AaegOR genes of interest (S3 File) and AaegOrco were synthesized by Twist Bioscience (San Francisco, CA, USA) and cloned into the pENTR plasmid. The Gateway LR directional cloning system (Invitrogen Corp., Carlsbad, CA, USA) was utilized to subclone AaegOR coding regions into the pSP64t-RFA oocyte expression plasmid. Plasmids were purified using the GeneJet Plasmid Miniprep Kit (ThermoFisher Scientific, Waltham, MA, USA). Purified plasmids were sequenced in both directions to confirm coding regions.
(§2) Chemical compounds (S6 File) used in the deorphanization of AaegORs were purchased from Acros Organics (Morris, NJ, USA), Alfa Aesar (Ward Hill, MA, USA), and ThermoFisher Scientific (Waltham, MA, USA) at the highest purity available. Compounds were stored as 1M stocks in 100% DMSO. Serial dilutions of each compound were prepared in 10% DMSO and blended by chemical class.
(§3) pSP64t-RFA: AaegOR clones were linearized using Xbal, and cRNAs were synthesized using the mMESSAGE mMACHINE ® SP6 kit (Life Technologies, Carlsbad, CA, USA). Xenopus laevis stage V-VII oocytes purchased from Xenopus1 (Dexter, MI, USA) were stored at 18°C in Incubation medium (ND96 96 with 5% dialyzed horse serum, 50μg/mL gentamycin, 100μg/mL streptomycin, 100μg/mL penicillin, and 550μg/mL sodium pyruvate). 30nL of cRNA was injected into multiple oocytes using a microinjection syringe pump (World Precision Instruments, Sarasota, FL, USA) maintained at 18°C for 48–72 hrs. Odorant blends were perfused across individual oocytes for 10–15 seconds, held at a resting membrane potential of -80 mV using an OC-725C oocyte clamp (Warner Instruments, LLC, Hamden, CT, USA). Induced currents were measured indirectly using the two-electrode voltage clamp technique (TEVC). Following each stimulus, currents were allowed to return to baseline before further stimulation. Data was captured using the Digidata 1550 B digitizer and PClamp10 software (Molecular Devices, San Jose, CA, USA). Concentration-response curves were generated by perfusing unitary odorants over oocytes at increasing concentrations from [10^-3M] to [10^-9M]. Data were analyzed using GraphPad Prism 8 (GraphPad Software Inc., La Jolla, CA, USA). At least two biological replicates were conducted at each concentration and for each compound. Data for at least seven oocytes responding to each compound was analyzed (S7 File).

AaegOR10 = molecular target: T3, AaegOR10 (Aedes aegypti, UniProt Q177X3); assay: Two-electrode voltage clamp of Xenopus laevis oocytes expressing AaegOR10/Orco (blends, unitary compounds, concentration-response); conditions: for Raw response, unitary compounds of blend Indoles 1: unitary compounds of Indoles 1, individual oocytes 1-9 (replicates); for Raw Data, concentration-response: first series, oocytes 1-8
T3 sequence (Q177X3 1-375): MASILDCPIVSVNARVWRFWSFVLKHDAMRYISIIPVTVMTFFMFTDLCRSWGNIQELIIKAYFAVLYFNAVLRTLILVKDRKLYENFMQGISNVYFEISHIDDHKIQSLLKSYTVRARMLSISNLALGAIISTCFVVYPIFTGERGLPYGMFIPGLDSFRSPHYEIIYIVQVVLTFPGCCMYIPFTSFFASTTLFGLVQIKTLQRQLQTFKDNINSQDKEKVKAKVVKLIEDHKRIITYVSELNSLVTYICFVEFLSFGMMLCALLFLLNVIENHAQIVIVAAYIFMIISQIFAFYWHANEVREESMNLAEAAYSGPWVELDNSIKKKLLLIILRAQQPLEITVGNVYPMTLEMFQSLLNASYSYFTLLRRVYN
T3 sequence (Q178U6 1-478 partner): T1 sequence (Q178U6 1-478 partner)
Source text: as §1, §2, §3

Row | SMILES | Raw data (Responses in nA), unitary compounds of Indoles 1, Alcohols 1, Alcohols 3 (AaegOR13) | Raw Data (Responses in nA), Indoles 1 unitary compounds (AaegOR55) | Raw response, unitary compounds of blend Indoles 1 (AaegOR10) | further results
1 | c1ccc2[nH]ccc2c1 [indole] | 0.0 nA (3×) and 5.0 nA (4×) | 40.0 nA (2×) and 15.0 nA and 30.0 nA (2×) and 25.0 nA (2×) | 0.0 nA (6×) and 80.0 nA and 10.0 nA (2×) | 
2 | COC(=O)c1c[nH]c2ccccc12 [methyl indole-3-carboxylate] | 0.0 nA and 20.0 nA and 15.0 nA (2×) and 10.0 nA (3×) |  | 0.0 nA (6×) and 10.0 nA (2×) and 30.0 nA | 
3 | Cc1cc2ccccc2[nH]1 [2-Methylindole] | 0.0 nA (6×) and 5.0 nA | 0.0 nA | 0.0 nA | 
4 | CCc1ccc(O)cc1 [4-ethylphenol, 4-Ethylphenol] | 70.0 nA and 740.0 nA and 340.0 nA and 310.0 nA and 300.0 nA and 275.0 nA and 250.0 nA | 5.0 nA (5×) and 0.0 nA (2×) | 0.0 nA | EC50 (AaegOR13; AaegOR13/Orco expressing oocytes, TEVC, concentration-response of normalized current): ~170 nM and 170 nM
5 | O=Cc1c[nH]c2ccccc12 [indole-3-carboxaldehyde] |  | 50.0 nA and 25.0 nA (2×) and 40.0 nA and 20.0 nA and 45.0 nA and 35.0 nA | 80.0 nA and 30.0 nA and 100.0 nA and 20.0 nA (2×) and 70.0 nA and 0.0 nA (3×) | 
6 | Cc1[nH]c2ccccc2c1C [2,3-dimethylindole] | 0.0 nA (6×) and 5.0 nA | 235.0 nA and 140.0 nA and 250.0 nA and 300.0 nA and 185.0 nA and 305.0 nA and 295.0 nA | 70.0 nA and 20.0 nA and 0.0 nA (4×) and 10.0 nA (2×) and 30.0 nA | EC50 (AaegOR55; AaegOR55/Orco expressing oocytes, TEVC, concentration-response of normalized current): 8650 nM; Raw Data (Responses in nA), concentration-response (AaegOR55; concentration 1e-7 M): 10.0 nA (6×) and 15.0 nA (2×) and 5.0 nA; Raw Data (Responses in nA), concentration-response (AaegOR55; concentration 5e-7 M): 30.0 nA (4×) and 20.0 nA (2×) and 15.0 nA and 40.0 nA and 45.0 nA; Raw Data (Responses in nA), concentration-response (AaegOR55; concentration 1e-6 M): 20.0 nA (2×) and 10.0 nA and 30.0 nA (2×) and 15.0 nA and 35.0 nA and 40.0 nA and 55.0 nA; Raw Data (Responses in nA), concentration-response (AaegOR55; concentration 5e-6 M): 70.0 nA and 25.0 nA and 80.0 nA and 60.0 nA (2×) and 110.0 nA and 120.0 nA and 190.0 nA (2×); Raw Data (Responses in nA), concentration-response (AaegOR55; concentration 1e-5 M): 90.0 nA (2×) and 25.0 nA and 120.0 nA and 80.0 nA and 140.0 nA and 170.0 nA and 260.0 nA (2×); Raw Data (Responses in nA), concentration-response (AaegOR55; concentration 5e-5 M): 165.0 nA and 40.0 nA and 210.0 nA and 140.0 nA and 170.0 nA and 220.0 nA and 240.0 nA and 430.0 nA and 380.0 nA; Raw Data (Responses in nA), concentration-response (AaegOR55; concentration 0.0001 M): 160.0 nA and 55.0 nA and 210.0 nA (3×) and 140.0 nA and 180.0 nA and 440.0 nA and 380.0 nA
7 | Cc1c[nH]c2ccccc12 [3-methylindole] | 0.0 nA and 5.0 nA (5×) and 10.0 nA | 160.0 nA and 85.0 nA and 170.0 nA and 235.0 nA and 120.0 nA and 225.0 nA and 245.0 nA | 270.0 nA and 500.0 nA and 120.0 nA and 40.0 nA and 80.0 nA and 320.0 nA and 70.0 nA and 180.0 nA and 30.0 nA | response of AaegOR55 to unitary compounds (AaegOR55; AaegOR55/Orco expressing oocytes, TEVC, individual compounds): responded; Raw Data, concentration-response (AaegOR10; 5e-7 M): 90.0 nA; Raw Data, concentration-response (AaegOR10; 1e-5 M): 100.0 nA; EC50 (AaegOR10; AaegOR10/Orco expressing oocytes, TEVC, concentration-response of normalized current): 160 nM
